Where “and” joins values, the source holds several entries; their conditions need not be identical. Equal entries are not always repeated.
System: Human Leukocyte Genomic DNA
Assay: PIC-1 adduct frequency on leukocyte genomic DNA (14C-labelled PIC-1)
Type: biochemical
Conditions: 20 h RT
Text: The quenching methods of the invention can also be compared to existing methods by determining the level of modification of nucleic acids in a sample. Typically, a red blood cell composition may contain leukocytes, and the nucleic acid from the leukocytes can be isolated. A pathogen inactivating compound having a radioactive isotope that, upon reaction of the compound with nucleic acid, will remain bound to the nucleic acid. This can be used to assess the amount of compound reacted with the nucleic acid for a variety of quenching methods, and provides a measure that can be directly correlated to expected leukocyte inactivation. The number of adducts formed per 1,000 nucleic acid base pairs can be used as a model to assess the expected impact of the various methods on pathogen inactivation. Alternatively, a suitable amount of a pathogen can be added to a red blood cell composition and the nucleic acid of the pathogen can be isolated after treatment. However, in this case the sample needs to be leukoreduced such that the levels of any residual leukocytes will not interfere with the measurement of pathogen nucleic acid.
The PIC-1 used included radiolabeled PIC-1, where the reactive group included a ^14C label (ViTrax, Inc., Placentia, Calif.). The specific activity of the PIC-1 used was […]. All samples were incubated at room temperature for 20 hours. After the incubation, 20 mL of RBC were diluted with a 20 mL volume of PBS and 20 mL of the mixture were added to each of two tubes containing 10 mL of Ficoll. The suspension was then centrifuged at 400×g for 30 minutes. The white blood cell portion was separated and the centrifuge step repeated after adding another 20 mL of PBS. The pellets obtained were combined and the combined pellet was resuspended in 5 mL Lysis buffer (100 mM NaCl, 10 mM Tris HCl, 25 mM EDTA, 5% SDS, 0.1 mg/mL Proteinase K, Sigma, St. Louis, Mo.) and was incubated at 50° C. for at least two hours. The resulting solution was then extracted with 5 mL of phenol:chloroform:isoamyl alcohol […], followed by 5 mL of chloroform, and then 5 mL of ether. The genomic DNA was isolated in the aqueous layer and precipitated by addition of 0.5 mL of 3 M NaOAc, 10 mL of 100% ethanol, followed by incubation of the final mixture in a dry ice/ethanol bath. The DNA was isolated by centrifugation at 6,000×g for 10′. The supernatant was removed, and the pellet air-dried and resuspended in 1 mL of TE buffer (100 mM Tris HCl, 1 mM EDTA, pH=7.4) The amount of DNA isolated was quantified by UV absorption at 260 nm and the amount of PIC-1 adducts was quantified by liquid scintillation counting (Perkin Elmer-Wallac, Winspectral 1414 Liquid Scintillation Counter, Shelton, Conn.) of the solution of DNA, using the specific activity of the PIC-1 to assess the molar ratio of PIC-1 to DNA base pairs. […] Glutathione is indicated as “GSH” and cysteine as “Cys” in the table, as well as elsewhere herein. The determination of adduct frequency was used as a surrogate measurement for the inactivation of leukocytes. It is known that under the standard pathogen inactivation conditions, leukocytes are inactivated to the level of detection of a limiting dilution assay, which corresponds to 5.3 log of inactivation. The mechanism of inactivation is through formation of adducts on the genomic nucleic acids. […] Similar studies could be done with a suitable pathogen using leukoreduced red blood cells in order to assess the binding to the pathogen nucleic acid under various conditions.

[1] = 20 mM GSH neutralized with 2 eq, 0.2 mM PIC-1 10 min later
[2] = 20 mM each neut. GSH (2 eq) and Cys (1 eq), 0.2 mM PIC-1 10 min later

## O=C(CCNc1c2ccccc2nc2ccccc12)OCCN(CCCl)CCCl [PIC-1]
0.2 mM PIC-1, 2 mM acidic GSH
  Adduct frequency (average number of base pairs between adducts): 44 and 29
  Adducts per kbp: 23 and 34
0.2 mM PIC-1, no quencher
  Adduct frequency (average number of base pairs between adducts): 36 and 35
  Adducts per kbp: 28
[1]
  Adduct frequency (average number of base pairs between adducts): 27 and 28
  Adducts per kbp: 37 and 36
[2]
  Adduct frequency (average number of base pairs between adducts): 33
  Adducts per kbp: 30
